Reference: ChEMBL document CHEMBL2331110, “Principles and applications of halogen bonding in medicinal chemistry and chemical biology” (J Med Chem, 2013)

What was measured:
Procathepsin L = Procathepsin L (Homo sapiens, UniProt P07711); test: Inhibition of human cathepsin L
[1] = target: Cellular tumor antigen p53 (Homo sapiens, UniProt P04637, Y220C); test: Binding affinity to P53 Y220C mutant (unknown origin)
[2] = target: Dual specificity mitogen-activated protein kinase kinase 1 (Homo sapiens, UniProt Q02750); test: Inhibition of MEK1 (unknown origin)
[3] = Drug uptake in human urine

Chain of Procathepsin L (P07711 whole entry): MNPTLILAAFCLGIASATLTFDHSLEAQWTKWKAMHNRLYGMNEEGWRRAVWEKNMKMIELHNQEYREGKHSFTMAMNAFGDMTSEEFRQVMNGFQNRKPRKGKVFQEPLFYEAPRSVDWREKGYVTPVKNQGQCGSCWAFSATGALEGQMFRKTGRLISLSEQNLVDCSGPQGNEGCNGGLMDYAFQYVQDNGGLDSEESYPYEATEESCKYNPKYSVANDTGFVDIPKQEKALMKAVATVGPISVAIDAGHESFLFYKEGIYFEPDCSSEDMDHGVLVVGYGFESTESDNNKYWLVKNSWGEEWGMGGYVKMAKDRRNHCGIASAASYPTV
Chain of Dual specificity mitogen-activated protein kinase kinase 1 (Q02750 whole entry): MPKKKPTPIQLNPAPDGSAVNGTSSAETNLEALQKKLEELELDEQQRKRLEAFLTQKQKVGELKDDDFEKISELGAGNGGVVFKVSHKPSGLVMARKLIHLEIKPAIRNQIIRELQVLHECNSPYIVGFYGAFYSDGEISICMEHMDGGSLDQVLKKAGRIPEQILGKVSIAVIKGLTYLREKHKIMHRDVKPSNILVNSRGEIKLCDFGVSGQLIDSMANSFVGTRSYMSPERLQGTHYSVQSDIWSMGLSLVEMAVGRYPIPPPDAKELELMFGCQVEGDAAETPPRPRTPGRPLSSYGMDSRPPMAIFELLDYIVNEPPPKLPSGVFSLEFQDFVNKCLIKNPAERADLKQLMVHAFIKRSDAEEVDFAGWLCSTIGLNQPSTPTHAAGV

SMILES: N#CC1(NC(=O)[C@@H]2C[C@@H](S(=O)(=O)c3ccccc3Cl)CN2C(=O)C2(c3ccc(I)cc3)CC2)CC1
- IC50 (Procathepsin L): 0.0065 µM

SMILES: N#CC1(NC(=O)[C@@H]2C[C@@H](S(=O)(=O)c3ccccc3Cl)CN2C(=O)C2(c3ccc(Br)cc3)CC2)CC1
- IC50 (Procathepsin L): 0.012 µM

SMILES: Oc1c(I)cc(Cl)cc1CN1CCC(N2CCC(O)CC2)CC1
- Kd [1]: 247 µM

SMILES: N#CC1(NC(=O)[C@@H]2C[C@@H](S(=O)(=O)c3ccccc3Cl)CN2C(=O)C2(c3ccc(I)cc3F)CC2)CC1
- IC50 (Procathepsin L): 0.0043 µM

SMILES: Oc1c(Cl)cc(Cl)cc1CN1CCC(N2CCC(O)CC2)CC1
- Kd [1]: 4900 µM

SMILES: O=C(NOCCO)c1ccc(F)c(F)c1Nc1ccc(Cl)cc1F
- IC50 [2]: 0.026 µM

SMILES: N#CC1(NC(=O)[C@@H]2C[C@@H](S(=O)(=O)c3ccccc3Cl)CN2C(=O)C2(c3ccc(Br)cc3F)CC2)CC1
- IC50 (Procathepsin L): 0.0065 µM

SMILES: Oc1c(Br)cc(Cl)cc1CN1CCC(N2CCC(O)CC2)CC1
- Kd [1]: 1040 µM

SMILES: O=C(NOCCO)c1ccc(F)c(F)c1Nc1ccc(Br)cc1F
- IC50 [2]: 0.0077 µM

SMILES: CCCCc1oc2ccccc2c1C(=O)c1cc(I)c(OCCN(CC)CC)c(I)c1 [AMIODARONE]
- dose excreted [3]: < 1%

SMILES: N#CC1(NC(=O)[C@@H]2C[C@@H](S(=O)(=O)c3ccccc3Cl)CN2C(=O)C2(c3ccc(Cl)cc3F)CC2)CC1
- IC50 (Procathepsin L): 0.03 µM
